Experimental data reported in US8207172B2 (Bayer Intellectual Property GmbH, priority 2004, dated 2012).

Tests used:
[1] = test system: A431 cells (human epidermoid carcinoma); assay: In vitro tumor cell proliferation assay (Cell Titer-Glo luminescent cell viability), A431; type: cell-based; details: A-431, 72 h, 72 hours of drug exposure, ATP luminescence readout, read-out: IC50, anti-proliferative activity (inhibition of cell proliferation)
Outline: (§1)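 Seeding density 2.5×10^3 cells/well; 72 h drug exposure at 37° C; endpoint CellTiter-Glo luminescence, reported as IC50.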

[2] = test system: BT474 (human breast carcinoma); assay: In vitro tumor cell proliferation assay (Cell Titer-Glo luminescent cell viability), BT474; type: cell-based; details: BT-474, 72 h, BT474 cells, 72 hours of drug exposure, ATP luminescence readout, read-out: IC50, anti-proliferative activity (inhibition of cell proliferation)
Outline: as §1

SMILES	IC50 [1]	IC50 [2]
CN(C)[C@H]1CCN(CCn2ncc3c2CCc2c-3sc3ncnc(Nc4ccc(F)c(Cl)c4)c23)C1 [Example 95, N-(3-chloro-4-fluorophenyl)-3-{2-[3-(dimethylamino)pyrrolidin-1-yl]ethyl}-4,5-dihydro-3H-pyrimido[5′,4′:4,5]thieno[2,3-e]indazol-6-amine]	≤ 5 µM	≤ 1 µM
Clc1cc(Nc2ncnc3sc4c(c23)CCc2c-4cnn2CCN2CCOCC2)ccc1OCc1ccccn1 [Example 111, N-[3-chloro-4-(pyridin-2-ylmethoxy)phenyl]-3-(2-morpholin-4-ylethyl)-4,5-dihydro-3H-pyrimido[5′,4′:4,5]thieno[2,3-e]indazol-6-amine]	≤ 50 µM	≤ 1 µM
CN1CCN(CCn2cc3c(n2)CCc2c-3sc3ncnc(Nc4ccc(Oc5cccnc5)c(F)c4)c23)CC1 [Example 343, N-[3-fluoro-4-(pyridin-3-yloxy)phenyl]-2-[2-(4-methylpiperazin-1-yl)ethyl]-4,5-dihydro-2H-pyrimido[5′,4′:4,5]thieno[2,3-e]indazol-6-amine]	≤ 50 µM	≤ 5 µM
CN1CCN(CCn2cc3c(n2)CCc2c-3sc3ncnc(Nc4ccc(F)c(Cl)c4)c23)CC1 [Example 8, N-(3-chloro-4-fluorophenyl)-2-[2-(4-methylpiperazin-1-yl)ethyl]-4,5-dihydro-2H-pyrimido[5′,4′:4,5]thieno[2,3-e]indazol-6-amine]	≤ 5 µM	≤ 1 µM
COCCN1CCN(CCn2cc3c(n2)CCc2c-3sc3ncnc(Nc4ccc(F)c(Cl)c4)c23)CC1 [Example 25, N-(3-chloro-4-fluorophenyl)-2-{2-[4-(2-methoxyethyl)piperazin-1-yl]ethyl}-4,5-dihydro-2H-pyrimido[5′,4′:4,5]thieno[2,3-e]indazol-6-amine]	≤ 5 µM	≤ 5 µM
COCCN1CCN(CCn2cc3c(n2)CCc2c-3sc3ncnc(Nc4ccc5c(cnn5Cc5ccccc5)c4)c23)CC1 [Example 308, N-(1-benzyl-1H-indazol-5-yl)-2-{2-[4-(2-methoxyethyl)piperazin-1-yl]ethyl}-4,5-dihydro-2H-pyrimido[5′,4′:4,5]thieno[2,3-e]indazol-6-amine]	≤ 50 µM	≤ 1 µM
Clc1cc(Nc2ncnc3sc4c(c23)CCc2nn(CCBr)cc2-4)ccc1OCc1ccccn1 [Example 101, 2-(2-bromoethyl)-N-[3-chloro-4-(pyridin-2-ylmethoxy)phenyl]-4,5-dihydro-2H-pyrimido[5′,4′:4,5]thieno[2,3-e]indazol-6-amine]	≤ 50 µM	≤ 1 µM
OCCNCCn1ncc2c1CCc1c-2sc2ncnc(Nc3ccc(F)c(Cl)c3)c12 [Example 96, 2-[(2-{6-[(3-chloro-4-fluorophenyl)amino]-4,5-dihydro-3H-pyrimido[5′,4′:4,5]thieno[2,3-e]indazol-3-yl}ethyl)amino]ethanol]	≤ 5 µM	≤ 1 µM
Fc1ccc(Nc2ncnc3sc4c(c23)CCc2c-4cnn2CCn2ccnc2)cc1Cl [Example 97, N-(3-chloro-4-fluorophenyl)-3-[2-(1H-imidazol-1-yl)ethyl]-4,5-dihydro-3H-pyrimido[5′,4′:4,5]thieno[2,3-e]indazol-6-amine]	≤ 5 µM	≤ 5 µM
COCCN(C)CCCn1ncc2c1CCc1c-2sc2ncnc(Nc3ccc(OCc4cccc(F)c4)c(Cl)c3)c12 [Example 270, N-{3-chloro-4-[(3-fluorobenzyl)oxy]phenyl}-3-{3-[(2-methoxyethyl)(methyl)amino]propyl}-4,5-dihydro-3H-pyrimido[5′,4′:4,5]thieno[2,3-e]indazol-6-amine]	≤ 50 µM	≤ 1 µM
CN(C)CCCCNCCn1cc2c(n1)CCc1c-2sc2ncnc(Nc3ccc(F)c(Cl)c3)c12 [Example 17, N′-(2-{6-[(3-chloro-4-fluorophenyl)amino]-4,5-dihydro-2H-pyrimido[5′,4′:4,5]thieno[2,3-e]indazol-2-yl}ethyl)-N,N-dimethylbutane-1,4-diamine]	≤ 5 µM	≤ 5 µM
C#Cc1cccc(Nc2ncnc3sc4c(c23)CCc2nn(CCN3CCN(C)CC3)cc2-4)c1 [Example 51, N-(3-ethynylphenyl)-2-[2-(4-methylpiperazin-1-yl)ethyl]-4,5-dihydro-2H-pyrimido[5′,4′:4,5]thieno[2,3-e]indazol-6-amine]	≤ 5 µM	≤ 50 µM
COCCN(C)CCn1ncc2c1CCc1c-2sc2ncnc(Nc3ccc(OCc4cccc(F)c4)c(Cl)c3)c12 [Example 261, N-{3-chloro-4-[(3-fluorobenzyl)oxy]phenyl}-3-{2-[(2-methoxyethyl)(methyl)amino]ethyl}-4,5-dihydro-3H-pyrimido[5′,4′:4,5]thieno[2,3-e]indazol-6-amine]	≤ 50 µM	≤ 1 µM
CN(C)C1CCN(C(=O)Cn2ncc3c2CCc2c-3sc3ncnc(Nc4ccc(OCc5cccc(F)c5)c(Cl)c4)c23)C1 (stereo in doubt) [Example 208, N-{3-chloro-4-[(3-fluorobenzyl)oxy]phenyl}-3-{2-[(3S)-3-(dimethylamino)pyrrolidin 1-yl]-2-oxoethyl}-4,5-dihydro-3H-pyrimido[5′,4′:4,5]thieno[2,3-e]indazol-6-amine]	≤ 5 µM	≤ 1 µM
OC[C@@H]1CCCN1CCn1cc2c(n1)CCc1c-2sc2ncnc(Nc3ccc(F)c(Cl)c3)c12 [Example 32, [(2S)-1-(2-{6-[(3-chloro-4-fluorophenyl)amino]-4,5-dihydro-2H-pyrimido[5′,4′:4,5]thieno[2,3-e]indazol-2-yl}ethyl)pyrrolidin-2-yl]methanol]	≤ 5 µM	≤ 5 µM

Other lines, results leading:

IC50 [1]	IC50 [2]	SMILES
≤ 50 µM	≤ 1 µM	CNCCn1cc2c(n1)CCc1c-2sc2ncnc(Nc3ccc(OCc4cccc(F)c4)c(Cl)c3)c12 [Example 71, N-{3-chloro-4-[(3-fluorobenzyl)oxy]phenyl}-2-[2-(methylamino)ethyl]-4,5-dihydro-2H-pyrimido[5′,4′:4,5]thieno[2,3-e]indazol-6-amine]
≤ 5 µM	≤ 1 µM	Cc1cc(Nc2ncnc3sc4c(c23)CCc2c-4cnn2CCN2CCN(C)CC2)ccc1OCc1cccc(F)c1 [Example 323, N-{4-[(3-fluorobenzyl)oxy]-3-methylphenyl}-3-[2-(4-methylpiperazin-1-yl)ethyl]-4,5-dihydro-3H-pyrimido[5′,4′:4,5]thieno[2,3-e]indazol-6-amine]
≤ 5 µM	≤ 1 µM	Fc1cccc(COc2ccc(Nc3ncnc4sc5c(c34)CCc3nn(CCN4CCC(N6CCCCC6)CC4)cc3-5)cc2Cl)c1 [Example 70, 2-[2-(1,4′-bipiperidin-1′-yl)ethyl]-N-{3-chloro-4-[(3-fluorobenzyl)oxy]phenyl}-4,5-dihydro-2H-pyrimido[5′,4′:4,5]thieno[2,3-e]indazol-6-amine]
≤ 5 µM	≤ 1 µM	CN(C)CCn1cc2c(n1)CCc1c-2sc2ncnc(Nc3ccc(OCc4cccc(F)c4)c(Cl)c3)c12 [Example 73, N-{3-chloro-4-[(3-fluorobenzyl)oxy]phenyl}-2-[2-(dimethylamino)ethyl]-4,5-dihydro-2H-pyrimido[5′,4′:4,5]thieno[2,3-e]indazol-6-amine]
≤ 5 µM	≤ 1 µM	CN1CCN(CCn2cc3c(n2)CCc2c-3sc3ncnc(Nc4ccc(OCc5cccc(C#N)c5)c(Cl)c4)c23)CC1 [Example 336, 3-{[2-chloro-4-({2-{2-(4-methylpiperazin-1-yl)ethyl]-4,5-dihydro-2H-pyrimido[5′,4′:4,5]thieno[2,3-e]indazol-6-yl}amino)phenoxy]methyl} benzonitrile]
≤ 50 µM	≤ 1 µM	Clc1cc(Nc2ncnc3sc4c(c23)CCc2nn(CCN3CCOCC3)cc2-4)ccc1OCc1ccccc1 [Example 126, N-[4-(benzyloxy)-3-chlorophenyl]-2-(2-morpholin-4-ylethyl)-4,5-dihydro-2H-pyrimido[5′,4′:4,5]thieno[2,3-e]indazol-6-amine]
≤ 5 µM	≤ 1 µM	CN1CCC(CCn2cc3c(n2)CCc2c-3sc3ncnc(Nc4ccc(OCc5cccc(F)c5)c(Cl)c4)c23)CC1 [Example 255, N-{3-chloro-4-[(3-fluorobenzyl)oxy]phenyl}-2-[2-(1-methylpiperidin-4-yl)ethyl]-4,5-dihydro-2H-pyrimido[5′,4′:4,5]thieno[2,3-e]indazol-6-amine]
≤ 50 µM	≤ 1 µM	O[C@H](CNCCN1CCOCC1)Cn1cc2c(n1)CCc1c-2sc2ncnc(Nc3ccc(OCc4cccc(F)c4)c(Cl)c3)c12 [Example 142, (2R)-1-[6-({3-chloro-4-[(3-fluorobenzyl)oxy]phenyl}amino)-4,5-dihydro-2H-pyrimido[5′,4′:4,5]thieno[2,3-e]indazol-2-yl]-3-[(2-morpholin-4-ylethyl)amino]propan-2-ol]
≤ 50 µM	≤ 5 µM	COCCn1cc2c(n1)CCc1c-2sc2ncnc(Nc3ccc(OCc4cccc(F)c4)c(Cl)c3)c12 [Example 312, N-{3-chloro-4-[(3-fluorobenzyl)oxy]phenyl}-2-(2-methoxyethyl)-4,5-dihydro-2H-pyrimido[5′,4′:4,5]thieno[2,3-e]indazol-6-amine]
≤ 5 µM	≤ 1 µM	CC(C)CN1CCC(CCn2cc3c(n2)CCc2c-3sc3ncnc(Nc4ccc(OCc5cccc(F)c5)c(Cl)c4)c23)CC1 [Example 251, N-{3-chloro-4-[(3-fluorobenzyl)oxy]phenyl}-2-[2-(1-isobutylpiperidin-4-yl)ethyl]-4,5-dihydro-2H-pyrimido[5′,4′:4,5]thieno[2,3-e]indazol-6-amine]
≤ 5 µM	≤ 1 µM	CCN1CCN(CCn2cc3c(n2)CCc2c-3sc3ncnc(Nc4ccc(OCc5cccc(F)c5)c(Cl)c4)c23)CC1 [Example 121, N-{3-chloro-4-[(3-fluorobenzyl)oxy]phenyl}-2-[2-(4-ethylpiperazin-1-yl)ethyl]-4,5-dihydro-2H-pyrimido[5′,4′:4,5]thieno[2,3-e]indazol-6-amine]
